Assay results: patent US20080292584A1 (priority 2005, published 2008)

How the values were obtained:
CYP1A2 [1] = biological target: T1, CYP1A2 (Homo sapiens, UniProt P05177); experiment: Chemical inhibition of metaxalone turnover in human liver microsomes, CYP1A2 selective inhibitor furafylline; details: both, pooled human liver microsomes
T1 sequence (P05177 1-516): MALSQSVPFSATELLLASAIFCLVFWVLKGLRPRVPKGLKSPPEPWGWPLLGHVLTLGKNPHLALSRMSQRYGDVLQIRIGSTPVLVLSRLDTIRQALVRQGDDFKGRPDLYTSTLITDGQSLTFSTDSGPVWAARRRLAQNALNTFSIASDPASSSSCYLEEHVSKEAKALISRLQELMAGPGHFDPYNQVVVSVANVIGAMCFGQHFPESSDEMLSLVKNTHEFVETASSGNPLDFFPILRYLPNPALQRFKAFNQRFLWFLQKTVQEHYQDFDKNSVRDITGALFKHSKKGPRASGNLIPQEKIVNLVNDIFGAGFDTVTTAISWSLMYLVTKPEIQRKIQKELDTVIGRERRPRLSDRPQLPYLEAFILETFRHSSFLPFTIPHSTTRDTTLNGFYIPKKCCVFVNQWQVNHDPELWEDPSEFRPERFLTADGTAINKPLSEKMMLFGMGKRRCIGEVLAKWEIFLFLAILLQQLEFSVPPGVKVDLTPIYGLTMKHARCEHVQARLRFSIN

CYP2A6 = experiment: Chemical inhibition of metaxalone turnover in human liver microsomes, CYP2A6 inhibitor pilocarpine; details: both, human, microsomes, pH 7.4, Inhibition of metaxalone disappearance (% inhibition of turnover)
CYP1A2 [2] = experiment: Induction/inhibition of CYP1A2 activity in cryopreserved human hepatocytes after 48 h exposure (phenacetin); details: human, 48 h, 50 μM
Source text: (§1) Hepatocytes from three human donors were obtained from a cryopreserved hepatocyte bank (In Vitro Technologies, Inc., USA). After thawing, viable hepatocytes were transferred to collagen-coated 48-well plates for attachment in plating medium (DMEM stock (Dulbecco's modified Eagle's medium, supplemented with bovine serum albumin, fructose, N-(2-hydroxyethyl)piperazine-N′-(2-ethanesulfonate) (HEPES), and sodium bicarbonate), supplemented with antibiotics, bovine serum, hydrocortisone, insulin and minimum essential medium (MEM) nonessential amino acids). After attachment to the collagen matrix, plating medium was replaced with sandwich medium (plating medium supplemented with VITROGEN) and incubated until use.
(§2) The supplemented KHB was replaced with 150 μL supplemented KHB containing the appropriate isoform-selective substrate and incubated for 4 hrs prior to termination by adding 150 μL ice-cold methanol, except for the CYP2C8 incubations which were terminated by adding 150 μL acetonitrile.
(§3) All substrates were dissolved in acetonitrile.
(§4) Replicate trials and controls were performed. […] Additionally, reference control samples were included to evaluate inducibility of CYP2B6, CYP2C9, and CYP2C19 in the test system.
(§5) Mean specific activity values with associated p-values≦0.05 were deemed to be statistically significant.

CYP2C9 = CYP2C9 (Homo sapiens, UniProt P11712); experiment: in vitro; details: both, microsomes, pH 7.4, Inhibition of metaxalone disappearance (% inhibition of turnover)
CYP2C9, sequence (P11712 whole entry): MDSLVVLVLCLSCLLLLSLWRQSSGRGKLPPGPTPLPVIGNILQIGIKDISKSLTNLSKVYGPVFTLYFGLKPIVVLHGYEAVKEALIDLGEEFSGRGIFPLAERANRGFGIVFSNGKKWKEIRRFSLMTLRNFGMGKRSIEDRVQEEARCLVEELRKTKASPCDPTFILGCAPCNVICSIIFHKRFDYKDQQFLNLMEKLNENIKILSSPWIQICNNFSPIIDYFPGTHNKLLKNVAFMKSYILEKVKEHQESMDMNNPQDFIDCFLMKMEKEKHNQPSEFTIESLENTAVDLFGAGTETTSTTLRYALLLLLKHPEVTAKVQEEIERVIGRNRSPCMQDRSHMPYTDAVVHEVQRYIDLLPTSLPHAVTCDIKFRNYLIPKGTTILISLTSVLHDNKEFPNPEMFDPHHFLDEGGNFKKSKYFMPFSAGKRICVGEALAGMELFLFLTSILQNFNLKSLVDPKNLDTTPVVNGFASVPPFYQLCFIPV

CYP2E1 = CYP2E1 (Homo sapiens, UniProt P05181); experiment: Chemical inhibition of metaxalone turnover in human liver microsomes, CYP2E1 inhibitor clomethiazole; details: both, human, microsomes, pH 7.4, Inhibition of metaxalone disappearance (% inhibition of turnover)
CYP2E1, sequence (P05181 whole entry): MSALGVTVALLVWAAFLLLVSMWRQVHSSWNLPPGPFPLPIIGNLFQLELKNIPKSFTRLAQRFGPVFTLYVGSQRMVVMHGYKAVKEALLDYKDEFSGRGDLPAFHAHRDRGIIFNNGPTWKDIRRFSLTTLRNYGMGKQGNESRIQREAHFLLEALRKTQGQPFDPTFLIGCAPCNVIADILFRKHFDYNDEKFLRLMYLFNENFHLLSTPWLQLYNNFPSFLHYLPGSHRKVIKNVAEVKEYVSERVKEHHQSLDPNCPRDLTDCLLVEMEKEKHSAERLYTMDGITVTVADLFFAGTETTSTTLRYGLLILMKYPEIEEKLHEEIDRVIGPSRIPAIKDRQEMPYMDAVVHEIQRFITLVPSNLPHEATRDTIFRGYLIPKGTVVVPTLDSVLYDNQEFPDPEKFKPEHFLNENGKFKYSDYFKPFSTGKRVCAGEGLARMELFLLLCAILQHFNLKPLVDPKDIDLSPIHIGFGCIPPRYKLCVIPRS

CYP2B6 [3] = experiment: Chemical inhibition of metaxalone turnover in human liver microsomes, CYP2B6 inhibitor thio-TEPA; details: both, human, microsomes, pH 7.4, Inhibition of metaxalone disappearance (% inhibition of turnover)
CYP2C8 = biological target: T2, CYP2C8 (Homo sapiens, UniProt P10632); experiment: Chemical inhibition of metaxalone turnover in human liver microsomes, CYP2C8 inhibitor quercetin; details: both, human, pooled human liver microsomes
T2 sequence (P10632 1-490): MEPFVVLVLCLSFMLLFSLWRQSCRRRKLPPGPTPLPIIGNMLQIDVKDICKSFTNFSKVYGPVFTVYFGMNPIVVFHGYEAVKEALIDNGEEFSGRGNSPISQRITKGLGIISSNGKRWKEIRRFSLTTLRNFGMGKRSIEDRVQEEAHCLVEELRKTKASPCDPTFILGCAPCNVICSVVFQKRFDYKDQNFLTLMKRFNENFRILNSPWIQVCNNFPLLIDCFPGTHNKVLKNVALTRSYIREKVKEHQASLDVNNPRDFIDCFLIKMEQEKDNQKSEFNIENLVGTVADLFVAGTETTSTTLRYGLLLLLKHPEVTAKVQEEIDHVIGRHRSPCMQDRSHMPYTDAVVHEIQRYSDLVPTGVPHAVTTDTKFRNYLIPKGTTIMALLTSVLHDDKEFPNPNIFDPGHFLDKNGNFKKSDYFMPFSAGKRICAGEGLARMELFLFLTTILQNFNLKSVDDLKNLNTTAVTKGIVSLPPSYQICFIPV

CYP2B6 [4] = experiment: Induction/inhibition of CYP2B6 activity in cryopreserved human hepatocytes (S-mephenytoin); details: 1 mM Phenobarbital; each hepatocyte donor
Source text: as §1, §2, §3, §4, §5

CYP3A4 = CYP3A4 (Homo sapiens, UniProt P08684); experiment: in vitro; details: both, pooled human liver microsomes
CYP3A4, sequence (P08684 whole entry): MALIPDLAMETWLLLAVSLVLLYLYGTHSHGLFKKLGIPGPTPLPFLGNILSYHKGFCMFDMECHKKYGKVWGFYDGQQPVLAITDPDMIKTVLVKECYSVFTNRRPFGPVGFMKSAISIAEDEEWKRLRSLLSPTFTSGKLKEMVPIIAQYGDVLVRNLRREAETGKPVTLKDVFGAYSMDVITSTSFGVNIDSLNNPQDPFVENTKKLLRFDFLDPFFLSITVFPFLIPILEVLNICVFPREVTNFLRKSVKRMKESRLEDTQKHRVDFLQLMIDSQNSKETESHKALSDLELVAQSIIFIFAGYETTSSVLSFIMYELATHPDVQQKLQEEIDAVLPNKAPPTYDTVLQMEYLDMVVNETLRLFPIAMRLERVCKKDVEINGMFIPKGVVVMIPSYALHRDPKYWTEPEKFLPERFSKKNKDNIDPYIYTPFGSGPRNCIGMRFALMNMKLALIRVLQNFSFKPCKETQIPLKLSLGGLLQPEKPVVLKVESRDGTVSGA

[5] = pH 7.4, probe metaxalone 0.75 μM (disappearance)
[6] = pH 7.4, probe metaxalone 7.5 μM (disappearance)

Cc1nc2c([nH]1)c(=O)n(C)c(=O)n2Cc1ccco1 [furafylline]
inhibition at 60 min (CYP1A2 [1]; [5]): 111 ± 29%
inhibition at 60 min (CYP1A2 [1]; [6]): 80.6 ± 2.4%

CC[C@@H]1C(=O)OC[C@@H]1Cc1cncn1C [pilocarpine]
inhibition at 60 min (CYP2A6; 0.75 μM metaxalone): 46.2 ± 5.7%
inhibition at 60 min (CYP2A6; 7.5 μM metaxalone): 50.8 ± 6.9%

COc1ccc2[nH]c([S+]([O-])Cc3ncc(C)c(OC)c3C)nc2c1 (stereo not shown) [omeprazole]
induction (CYP1A2 [2]): ≥ 200%

Nc1ccc(S(=O)(=O)Nc2ccnn2-c2ccccc2)cc1 [sulfaphenazole]
inhibition at 60 min (CYP2C9; 0.75 μM metaxalone): 81.4 ± 0.3%
inhibition at 60 min (CYP2C9; 7.5 μM metaxalone): 52.8 ± 2.9%

Cc1ncsc1CCCl [clomethiazole]
inhibition at 60 min (CYP2E1; 0.75 μM metaxalone): 113 ± 21%
inhibition at 60 min (CYP2E1; 7.5 μM metaxalone): 98.6 ± 4.9%

S=P(N1CC1)(N1CC1)N1CC1 [thio-TEPA]
inhibition at 60 min (CYP2B6 [3]; 0.75 μM metaxalone): 58.3 ± 2.4%
inhibition at 60 min (CYP2B6 [3]; 7.5 μM metaxalone): 43.3 ± 13.8%

O=c1c(O)c(-c2ccc(O)c(O)c2)oc2cc(O)cc(O)c12 [quercetin]
inhibition at 60 min (CYP2C8; [5]): 77.2 ± 13.6%
inhibition at 60 min (CYP2C8; [6]): 84.7 ± 18.3%

CCC1(c2ccccc2)C(=O)NC(=O)NC1=O [Phenobarbital]
induction (reference control) (CYP2B6 [4]): statistically significant amount of induction

CC(=O)N1CCN(c2ccc(OCC3COC(Cn4ccnc4)(c4ccc(Cl)cc4Cl)O3)cc2)CC1 (stereo not shown) [ketoconazole]
inhibition at 60 min (CYP3A4; [5]): 126 ± 5%
inhibition at 60 min (CYP3A4; [6]): 130 ± 18%
